Laboratory results taken from patent publication US20210038587A1, “METHODS AND COMPOSITIONS FOR TREATING NON-ERK MAPK PATHWAY INHIBITOR-RESISTANT CANCERS” (BIOMED VALLEY DISCOVERIES, INC., priority 2013, published 2021).
Several values for one entry are separate records, joined by “and”; a condition that tells them apart may be missing. Identical values can stand only once. Like-named read-outs stand apart in the source and are kept apart here.

Columns and labels:
CDK2/cyclinA = CDK2/cyclinA (Homo sapiens, UniProt P24941); test: Kinase counter-screen, Ki; type: biochemical
Text: (§3) The ATP concentrations were approximately equal to the Km in all assays.

CDK5/p35 = CDK5/p35 (Homo sapiens, UniProt Q00535); test: Kinase counter-screen, Ki; type: biochemical; conditions: apparent Ki
CDK5/p35, sequence (Q00535 whole entry, species assumed): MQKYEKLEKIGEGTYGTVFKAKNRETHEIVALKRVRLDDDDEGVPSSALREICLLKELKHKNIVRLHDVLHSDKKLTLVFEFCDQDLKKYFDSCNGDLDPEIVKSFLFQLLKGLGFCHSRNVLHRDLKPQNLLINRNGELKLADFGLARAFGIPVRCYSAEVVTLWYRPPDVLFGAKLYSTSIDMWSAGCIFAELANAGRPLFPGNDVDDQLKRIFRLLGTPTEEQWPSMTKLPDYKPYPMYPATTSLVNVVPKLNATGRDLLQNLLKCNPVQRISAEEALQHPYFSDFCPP
CDK5/p35, sequence (Q15078 whole entry partner, species assumed): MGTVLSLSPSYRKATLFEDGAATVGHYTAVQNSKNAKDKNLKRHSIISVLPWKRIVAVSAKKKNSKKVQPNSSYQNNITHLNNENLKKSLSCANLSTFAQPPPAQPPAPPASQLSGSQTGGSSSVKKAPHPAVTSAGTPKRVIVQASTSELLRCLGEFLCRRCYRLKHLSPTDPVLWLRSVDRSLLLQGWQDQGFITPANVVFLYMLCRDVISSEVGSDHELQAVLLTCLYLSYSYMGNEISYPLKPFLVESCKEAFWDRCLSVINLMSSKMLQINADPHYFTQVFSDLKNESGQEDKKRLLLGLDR
Text: as §3

CDK6/cycinD3 = CDK6/cycinD3 (Homo sapiens, UniProt Q00534); test: Kinase counter-screen, Ki; type: biochemical; conditions: apparent Ki
CDK6/cycinD3, sequence (Q00534 whole entry, species assumed): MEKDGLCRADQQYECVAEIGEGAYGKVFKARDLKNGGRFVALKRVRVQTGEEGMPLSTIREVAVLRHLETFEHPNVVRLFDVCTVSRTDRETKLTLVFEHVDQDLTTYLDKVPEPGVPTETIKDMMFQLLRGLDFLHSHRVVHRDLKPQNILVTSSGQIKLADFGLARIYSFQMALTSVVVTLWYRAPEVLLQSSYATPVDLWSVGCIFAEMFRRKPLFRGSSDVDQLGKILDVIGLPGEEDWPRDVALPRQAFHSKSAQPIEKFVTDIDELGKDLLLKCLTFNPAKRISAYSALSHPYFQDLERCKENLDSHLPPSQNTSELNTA
CDK6/cycinD3, sequence (P30281 whole entry partner, species assumed): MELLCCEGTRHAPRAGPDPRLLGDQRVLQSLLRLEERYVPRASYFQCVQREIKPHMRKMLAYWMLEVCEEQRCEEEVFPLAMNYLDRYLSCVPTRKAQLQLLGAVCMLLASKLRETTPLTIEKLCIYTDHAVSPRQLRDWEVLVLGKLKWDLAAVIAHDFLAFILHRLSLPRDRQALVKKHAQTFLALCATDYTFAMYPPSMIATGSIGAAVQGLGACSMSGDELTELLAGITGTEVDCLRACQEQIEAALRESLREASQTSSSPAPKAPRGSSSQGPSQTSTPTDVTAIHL
Text: as §3

JNK2α = JNK2α (Homo sapiens, UniProt P45984); test: Kinase counter-screen, Ki; type: biochemical; conditions: apparent Ki
JNK2α, sequence (P45984 whole entry): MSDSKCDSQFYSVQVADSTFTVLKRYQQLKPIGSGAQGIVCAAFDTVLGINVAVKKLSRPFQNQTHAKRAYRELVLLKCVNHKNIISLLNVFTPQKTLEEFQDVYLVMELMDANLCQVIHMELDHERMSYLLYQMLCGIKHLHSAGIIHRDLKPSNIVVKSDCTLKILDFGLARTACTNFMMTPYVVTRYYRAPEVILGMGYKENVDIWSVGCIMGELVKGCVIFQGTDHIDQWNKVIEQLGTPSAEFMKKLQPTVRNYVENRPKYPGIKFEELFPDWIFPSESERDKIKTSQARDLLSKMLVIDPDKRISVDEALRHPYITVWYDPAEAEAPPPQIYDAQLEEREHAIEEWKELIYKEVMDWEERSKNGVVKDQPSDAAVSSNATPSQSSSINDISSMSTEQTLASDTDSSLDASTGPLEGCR
Text: as §3

JNK3 = JNK3 (Homo sapiens, UniProt P53779); test: Kinase counter-screen, Ki; type: biochemical
JNK3, sequence (P53779 whole entry, species assumed): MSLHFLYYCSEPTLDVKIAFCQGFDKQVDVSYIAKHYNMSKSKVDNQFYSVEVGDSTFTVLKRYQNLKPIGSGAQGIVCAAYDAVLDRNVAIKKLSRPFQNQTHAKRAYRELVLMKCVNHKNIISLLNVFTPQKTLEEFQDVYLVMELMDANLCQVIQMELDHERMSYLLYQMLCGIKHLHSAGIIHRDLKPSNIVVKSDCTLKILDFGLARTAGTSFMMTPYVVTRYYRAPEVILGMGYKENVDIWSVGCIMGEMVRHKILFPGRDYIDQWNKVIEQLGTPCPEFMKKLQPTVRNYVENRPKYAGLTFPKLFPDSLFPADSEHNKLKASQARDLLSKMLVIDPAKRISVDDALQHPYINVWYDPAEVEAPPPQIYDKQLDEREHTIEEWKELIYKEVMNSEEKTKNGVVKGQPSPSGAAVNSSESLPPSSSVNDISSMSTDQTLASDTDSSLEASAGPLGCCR
Text: as §3

P38γ = P38γ (Homo sapiens, UniProt P53778); test: Kinase counter-screen, Ki; type: biochemical; conditions: apparent Ki
P38γ, sequence (P53778 whole entry): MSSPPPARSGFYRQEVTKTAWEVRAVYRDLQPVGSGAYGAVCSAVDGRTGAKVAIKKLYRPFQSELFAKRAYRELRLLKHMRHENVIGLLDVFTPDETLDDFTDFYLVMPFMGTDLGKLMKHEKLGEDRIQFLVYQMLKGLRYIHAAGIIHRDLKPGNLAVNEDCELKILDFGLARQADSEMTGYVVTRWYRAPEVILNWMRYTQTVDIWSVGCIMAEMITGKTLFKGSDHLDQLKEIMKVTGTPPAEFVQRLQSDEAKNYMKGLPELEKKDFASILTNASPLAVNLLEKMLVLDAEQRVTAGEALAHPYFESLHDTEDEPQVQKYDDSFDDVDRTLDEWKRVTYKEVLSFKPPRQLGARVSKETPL
Text: as §3

P38δ = P38δ (Homo sapiens, UniProt O15264); test: Kinase counter-screen, Ki; type: biochemical; conditions: apparent Ki
P38δ, sequence (O15264 whole entry): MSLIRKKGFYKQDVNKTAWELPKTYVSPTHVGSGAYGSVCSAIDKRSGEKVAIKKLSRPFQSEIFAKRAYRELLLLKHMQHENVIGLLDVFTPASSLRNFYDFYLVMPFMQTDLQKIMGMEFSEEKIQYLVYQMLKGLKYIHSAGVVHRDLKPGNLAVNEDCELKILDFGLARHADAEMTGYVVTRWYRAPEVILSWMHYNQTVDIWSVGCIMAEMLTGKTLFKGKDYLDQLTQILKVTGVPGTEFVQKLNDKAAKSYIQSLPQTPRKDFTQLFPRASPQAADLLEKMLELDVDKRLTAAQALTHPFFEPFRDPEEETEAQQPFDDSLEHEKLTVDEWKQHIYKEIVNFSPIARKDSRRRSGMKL
Text: as §3

RSK3 = RSK3 (Homo sapiens, UniProt Q15349); test: Kinase counter-screen, Ki; type: biochemical
RSK3, sequence (Q15349 whole entry, species assumed): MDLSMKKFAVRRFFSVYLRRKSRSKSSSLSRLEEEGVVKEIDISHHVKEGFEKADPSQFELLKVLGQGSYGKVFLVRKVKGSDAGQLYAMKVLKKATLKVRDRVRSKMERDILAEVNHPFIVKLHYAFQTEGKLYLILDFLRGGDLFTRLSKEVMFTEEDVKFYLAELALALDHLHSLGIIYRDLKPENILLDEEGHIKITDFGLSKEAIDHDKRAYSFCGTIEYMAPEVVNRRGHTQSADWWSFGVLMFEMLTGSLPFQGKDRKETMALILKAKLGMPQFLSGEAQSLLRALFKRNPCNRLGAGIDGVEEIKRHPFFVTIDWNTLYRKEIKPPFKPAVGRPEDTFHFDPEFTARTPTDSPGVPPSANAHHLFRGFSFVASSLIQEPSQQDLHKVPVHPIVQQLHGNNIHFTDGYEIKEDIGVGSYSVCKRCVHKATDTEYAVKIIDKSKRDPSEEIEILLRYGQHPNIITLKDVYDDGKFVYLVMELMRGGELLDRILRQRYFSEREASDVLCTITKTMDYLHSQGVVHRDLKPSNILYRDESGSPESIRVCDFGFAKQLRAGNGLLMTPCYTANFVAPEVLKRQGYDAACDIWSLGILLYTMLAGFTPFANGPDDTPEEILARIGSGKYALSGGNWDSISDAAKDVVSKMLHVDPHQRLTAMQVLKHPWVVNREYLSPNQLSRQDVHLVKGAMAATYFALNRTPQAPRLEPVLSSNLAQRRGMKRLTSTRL
Text: as §3

A375 xenografts [1] = test: Antitumor activity in A375 xenografts, monotherapy; type: in vivo, mice; conditions: 14 days
Method: (§1) For measurement of antitumor activity in A375 xenografts, xenografts were initiated with A375 cells maintained by serial subcutaneous transplantation in female athymic nude mice. Each test mouse received an A375 tumor fragment (1 mm^3) implanted subcutaneously in the right flank. Once tumors reached target size (80-120 mm^3), animals were randomized into treatment and control groups, and drug treatment was initiated.
Oral temozolomide was administered as a positive reference compound at 75 or 175 mg/kg once daily (QD) for a total of five treatments (QD×5).

A375 xenografts [2] = test: A375 xenografts, BVD-523 in combination with dabrafenib; type: in vivo, mice; conditions: 100 mg/kg BID
Text: as §1
(§2) Combination dosing was stopped on Day 20 to monitor for tumor regrowth. Animals were monitored individually and euthanized when each tumor reached an endpoint volume of 2000 mm^3, or the final day (Day 45), whichever came first, and median time to endpoint (TTE) calculated. The combination was also evaluated in an upstaged A375 model where larger tumors in the range 228-1008 mm^3 were evaluated. Here, mice were randomized into 1 group (Group 1) of 14 and 4 groups (Groups 2-5) of 20. […] Tumors were measured twice weekly. Combination dosing was stopped on Day 42 to monitor for tumor regrowth through study end (Day 60). Treatment outcome was determined from % TGD, defined as the percent increase in median TTE for treated versus control mice, with differences between groups analyzed via log rank survival analysis. […] Mice were also monitored for CR and PR responses. Animals with a CR at the end of the study were additionally classified as TFS.

upstaged A375 xenografts = test: Upstaged A375 xenograft model, BVD-523 in combination with dabrafenib; type: in vivo, mice; conditions: 100 mg/kg BID
Method: as §2

[3] = tested on: ERK1/2 phosphorylation in Colo205 xenografts; test: pERK1/2 in Colo205 xenograft tumors (ITIS mass spectrometry, IHC); type: in vivo, mice; conditions: single 100 mg/kg oral dose
Method: For measurement of ERK1/2 Isotope-Tagged Internal Standard (ITIS) Mass Spectrometry in Colo205 Xenografts, frozen tumors were lysed in 10 volumes of ice cold lysis buffer (10 mM TRIS-HCl, pH 8.0, 10 mM MgCl2, 1% (v/v) Triton X-100, Complete™ Protease Inhibitor Cocktail [Roche, cat. No. 1836170], Phosphatase Inhibitor Cocktail I [Sigma, cat. No. P-2850], Phosphatase Inhibitor Cocktail II [Sigma cat. No. 5726], and benzonase [Novagen cat. No. 70664]). Lysates were clarified by centrifugation (100,000×g for 60 minutes at 4° C.) and the supernatants adjusted to 2 mg/mL with lysis buffer. ERK1 was immunoprecipitated using agarose-coupled and pan-anti-ERK1 (Santa Cruz Biotechnology cat. No. sc-93ac) antibodies. […]
For ITIS analysis, digested samples were spiked with heavy-atom labeled peptide standards and fractional phosphorylation was quantified by coupled liquid chromatography-tandem mass spectrometry (MS). […]
For analysis of pERK IHC in Colo205 xenografts, xenograft tumors were processed overnight in 70% through 100% graded ethanols, cleared in two changes of xylene, infiltrated with paraffin, and embedded into paraffin blocks. […] A single section from each animal and dose group was probed with anti-phospho p42/p44 MAPK antibody (pERK [1:100], CST; Cat no. 9101; Lot no. 16), counterstained with hematoxylin, and then analyzed microscopically using a Zeiss Axioplan 2 microscope. […]

[4] = tested on: patient-derived xenograft (AT052C); test: Patient-derived xenograft from vemurafenib-refractory BRAFV600E melanoma; type: in vivo, mice; conditions: 100 mg/kg BID, 28 days
Text: Tumor fragments were harvested from host animals and implanted into immune-deficient mice.

[5] = Phase I study: pharmacokinetic analysis; type: in vivo, human; conditions: for AUC(0-t) / Cmax: plasma
Method: Blood samples were collected prior to dosing, and then at 0.5 (±5 min), 1 (±5 min), 2 (±10 min), 4 (±10 min), 6 (±10 min), 8 (±10 min), and 12 (±2 hr) hours on Day 1 (Visit 2; baseline/initiation of treatment) and Day 15 (Visit 4; at steady state) after the morning dose. On Day 22, prior to dose administration, a final blood sample was collected for pharmacokinetic analyses. Urine samples were collected predose and at the 1- to 6-hour and 6- to 12-±2-hour intervals postdose on Days 1 and 15. […] Standard pharmacokinetic parameters were obtained using Phoenix WinNonlin (Pharsight) with a noncompartmental method. Relationship between dose and exposure was calculated using standard least-squares regression analysis.

[6] = tested on: PMA stimulated ERK activity (RSK-1 phosphorylation); test: Phase I study: pharmacodynamic target inhibition (pRSK in patient whole blood); type: in vivo; conditions: Homo sapiens, 360 h, prior to Day 15 dosing
advanced solid tumors = test: Phase I study: antitumor response (RECIST v1.1, 18F-FDG-PET); type: in vivo, human
Method: For measurement of antitumor response, tumor measurements based on physical examination occurred at baseline and on the first day of each treatment cycle. CT and other assessments were made every 2 to 3 cycles. Findings were assessed in accordance with RECIST v1.1: CR was defined as disappearance of all target lesions; PR was defined as a ≥30% decrease in the sum of the longest diameters of target lesions, taking baseline measurements as reference; stable disease was defined as being of neither sufficient shrinkage to qualify for PR nor sufficient increase to qualify for progressive disease, taking as reference the baseline measurement.

ERK1 = ERK1 (Homo sapiens, UniProt P27361); test: biochemical
ERK1, sequence (P27361 whole entry): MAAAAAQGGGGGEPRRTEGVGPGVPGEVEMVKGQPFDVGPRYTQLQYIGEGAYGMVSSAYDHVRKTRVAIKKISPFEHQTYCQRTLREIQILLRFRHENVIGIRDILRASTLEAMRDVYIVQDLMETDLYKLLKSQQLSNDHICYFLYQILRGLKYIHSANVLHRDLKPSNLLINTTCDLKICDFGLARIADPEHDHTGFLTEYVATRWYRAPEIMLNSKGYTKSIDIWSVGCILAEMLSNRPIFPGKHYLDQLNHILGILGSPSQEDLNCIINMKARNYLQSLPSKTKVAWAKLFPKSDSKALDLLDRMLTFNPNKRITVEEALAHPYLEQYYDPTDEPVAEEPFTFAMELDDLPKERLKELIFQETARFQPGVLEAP
Method: The reaction was initiated by the addition of 65 μM of ATP. Decreased absorbance rate (340 nm) was monitored and the IC50 was determined as a function of inhibitor concentration.

Colo205 xenografts = test: BVD-523 activity in Colo205 xenografts

Compound `CC(C)Nc1cc(-c2c[nH]c(C(=O)N[C@H](CO)c3cccc(Cl)c3)c2)c(Cl)cn1` [BVD-523] has a Ki (CDK2/cyclinA) of 360 nM, a Ki (CDK5/p35) of 90 nM and a Ki (CDK6/cycinD3) of 90 nM. It also gave a Ki (JNK2α) of 650 nM, a Ki (JNK3) of 1300 nM and a Ki (P38γ) of 450 nM. For the same compound, the Ki (P38δ) was 240 nM, the Ki (RSK3) was 450 nM and the “tumor growth inhibition (TGI)” value (A375 xenografts [1]; 50 mg/kg BID p.o.) was 71%. The “tumor growth inhibition (TGI)” value (A375 xenografts [1]; 100 mg/kg BID p.o.) was 99%, the durable complete responses (A375 xenografts [2]) was 2 and the PRs (upstaged A375 xenografts) was 2. The “time of maximal ERK1/2 phosphorylation post-dose” value [3] was 8 h, the “time of return of pERK1/2 to pre-dose levels” value [3] was at most 24 hours and the TGI [4] was 78%. The “urinary excretion within 12 hours postdose” value ([5]; first dose and steady state, all dose levels) was < 0.2 % of the dose, the CL renal ([5]; human, plasma and urine, oral, n≥3, read-out: mean renal clearance values) was 0.248 to 0.5 mL/min and the AUC(0-t) ([5]; human, oral, 10 mg, 10 mg BID, Day 1, read-out: AUC0-12) was 220 ng·h/mL. The Cmax ([5]; human, oral, 10 mg, 10 mg BID, Day 1, read-out: Cmax) was 48.2 ng/mL, the AUC(0-t) ([5]; human, oral, 10 mg, 10 mg BID, Day 15, read-out: AUC0-12) was 234 ng·h/mL and the Cmax ([5]; human, oral, 10 mg, 10 mg BID, Day 15, read-out: Cmax) was 45.7 ng/mL. It also gave an AUC(0-t) ([5]; human, oral, 20 mg, 20 mg BID, Day 1, read-out: AUC0-12) of 91.7 ng·h/mL, a Cmax ([5]; human, oral, 20 mg, 20 mg BID, Day 1, read-out: Cmax) of 14.9 ng/mL and an AUC(0-t) ([5]; human, oral, 20 mg, 20 mg BID, Day 15, read-out: AUC0-12) of 98.7 ng·h/mL. The Cmax ([5]; human, oral, 20 mg, 20 mg BID, Day 15, read-out: Cmax) was 15.8 ng/mL, the AUC(0-t) ([5]; human, oral, 40 mg, 40 mg BID, Day 1, read-out: AUC0-12) was 614 ng·h/mL and the Cmax ([5]; human, oral, 40 mg, 40 mg BID, Day 1, read-out: Cmax) was 100 ng/mL. It also gave an AUC(0-t) ([5]; human, oral, 40 mg, 40 mg BID, Day 15, read-out: AUC0-12) of 999 ng·h/mL, a Cmax ([5]; human, oral, 40 mg, 40 mg BID, Day 15, read-out: Cmax) of 191 ng/mL and an AUC(0-t) ([5]; human, oral, 150 mg, 150 mg BID, Day 1, read-out: AUC0-12) of 817 ng·h/mL. It also gave a Cmax ([5]; human, oral, 150 mg, 150 mg BID, Day 1, read-out: Cmax) of 133 ng/mL, an AUC(0-t) ([5]; human, oral, 150 mg, 150 mg BID, Day 15, read-out: AUC0-12) of 2770 ng·h/mL and a Cmax ([5]; human, oral, 150 mg, 150 mg BID, Day 15, read-out: Cmax) of 326 ng/mL. The AUC(0-t) ([5]; human, oral, 300 mg, 300 mg BID, Day 1, read-out: AUC0-12 ± SD) was 4110 ± 1140 ng·h/mL, the Cmax ([5]; human, oral, 300 mg, 300 mg BID, Day 1, read-out: Cmax ± SD) was 765 ± 234 ng/mL and the AUC(0-t) ([5]; human, oral, 300 mg, 300 mg BID, Day 15, read-out: AUC0-12 ± SD) was 4460 ± 2460 ng·h/mL. It also gave a Cmax ([5]; human, oral, 300 mg, 300 mg BID, Day 15, read-out: Cmax ± SD) of 586 ± 257 ng/mL, an AUC(0-t) ([5]; human, oral, 600 mg, 600 mg BID, Day 1, read-out: AUC0-12 ± SD) of 2750 ± 1740 ng·h/mL and an AUC(0-t) ([5]; human, oral, 600 mg, 600 mg BID, Day 15, read-out: AUC0-12 ± SD) of 24400 ± 16200 ng·h/mL. It also gave a Cmax ([5]; human, oral, 600 mg, 600 mg BID, Day 15, read-out: Cmax ± SD) of 2750 ± 170 ng/mL, an AUC(0-t) ([5]; human, oral, 750 mg, 750 mg BID, Day 1, read-out: AUC0-12 ± SD) of 10700 ng·h/mL and a Cmax ([5]; human, oral, 750 mg, 750 mg BID, Day 1, read-out: Cmax ± SD) of 1450 ± 539 ng/mL. It also gave an AUC(0-t) ([5]; human, oral, 750 mg, 750 mg BID, Day 15, read-out: AUC0-12 ± SD) of 23300 ng·h/mL, a Cmax ([5]; human, oral, 750 mg, 750 mg BID, Day 15, read-out: Cmax ± SD) of 2290 ng/mL and an AUC(0-t) ([5]; human, oral, 750 mg, Day 15, reduced from 750 mg to 450 mg/dose, read-out: AUC0-12, individual subject) of 10700 ng·h/mL. It also gave a Cmax ([5]; human, oral, 750 mg, Day 15, reduced from 750 mg to 450 mg/dose, read-out: Cmax, individual subject) of 1300 ng/mL, an AUC(0-t) ([5]; human, oral, 900 mg, 900 mg BID, Day 1, read-out: AUC0-12 ± SD) of 10800 ng·h/mL and a Cmax ([5]; human, oral, 900 mg, 900 mg BID, Day 1, read-out: Cmax ± SD) of 1430 ± 1010 ng/mL. For the same compound, the AUC(0-t) ([5]; human, oral, 900 mg, 900 mg BID, Day 15, read-out: AUC0-12 ± SD) was 15900 ng·h/mL, the Cmax ([5]; human, oral, 900 mg, 900 mg BID, Day 15, read-out: Cmax ± SD) was 1720 ± 328 ng/mL and the “dose-exposure relationship (Cmax and AUC)” value ([5]; up to 600 mg BID) was “linear and dose proportional”. For the same compound, the inhibition at 10 mg ([6]; 10 mg BID) was 0%, the inhibition at 900 mg ([6]; 900 mg BID) was 93 ± 8% and the “durable partial response, duration of dosing” value (advanced solid tumors; 600 mg BID, progressed on prior vemurafenib and dabrafenib/trametinib) was over 300 days. The partial response (advanced solid tumors; 25 evaluable patients, all melanoma with BRAF^V600 mutations) was 3 patients, the “progressive disease at first evaluation” value (advanced solid tumors; in vivo) was 4 patients and the stable disease (advanced solid tumors; in vivo) was 18 patients. For the same compound, the “stable disease for more than 3 months (additional patients)” value (advanced solid tumors; in vivo) was 6 patients, the “stable disease for more than 6 months” value (advanced solid tumors; in vivo) was 6 patients and the “reduction in the sum of target lesions from baseline” value (advanced solid tumors; other partial responders) was 47.0% and 33.6%. For the same compound, the “reduction in the sum of target lesions from baseline” value (advanced solid tumors; partial responder at 450 mg BID) was about 70%, the “duration of partial response” value (advanced solid tumors; patient intolerant to other BRAF/MEK inhibitors, ongoing by data cutoff) was at least 313 days and the “duration of partial response” value (advanced solid tumors; patient refractory to prior BRAF/MEK inhibitors, ongoing) was at least 294 days. For the same compound, the Ki (ERK1; Ki against recombinant ERK1, tight-binding) was under 0.3 nM, the Ki (ERK1; Ki, ERK1) was at most 0.3 nM and the T/C (Colo205 xenografts; 25 mg/kg BID) was 25.2%. The “mean tumor regression T/Ti” value (Colo205 xenografts; 50 mg/kg BID) was −48.2%, the “mean tumor regression T/Ti” value (Colo205 xenografts; 75 mg/kg BID) was −77.2% and the “mean tumor regression T/Ti” value (Colo205 xenografts; 100 mg/kg BID) was −92.3%.
